Measured values: ChEMBL document CHEMBL1126598, “Novel nonopioid non-antiinflammatory analgesics: 3-(aminoalkyl)- and 3-[(4-aryl-1-piperazinyl)alkyl]oxazolo[4,5-b]pyridin-2(3H)-ones” (J Med Chem, 1993)
Calls of active or inactive are those of the source. The rule behind the calls is not given here.

Assays:
[1] = tested on: Rattus norvegicus; assay: Anti-inflammatory effect expressed as % inhibition at 50 mg/kg in acute carrageenan paw edema test in rats; No inhibition; assay type: functional, organism-based; parameters: dose 50 mg/kg
[2] = Percent mortality in mice after oral administration (500 mg/kg) using acute toxicity assay; assay type: organism-based; settings: mouse, in vivo
[3] = species on record: Mus musculus; assay: Analgesic activity in mice using p-phenylquinone test.; assay type: functional
[4] = tested on: Mus musculus; assay: General behavior in mice after oral administration (500 mg/kg) using acute toxicity assay; Convulsions; assay type: functional, organism-based
[5] = tested on: Rattus norvegicus; assay: Anti-inflammatory effect expressed as % inhibition at 100 mg/kg in acute carrageenan paw edema test in rats; assay type: functional
[6] = Percent mortality in mice after oral administration (1000 mg/kg) using acute toxicity assay; assay type: organism-based; settings: mouse, in vivo
[7] = tested on: Mus musculus; assay: General behavior in mice after oral administration (1000 mg/kg) using acute toxicity assay; convulsions; assay type: functional, organism-based
[8] = tested on: Mus musculus; assay: General behavior in mice after oral administration (1000 mg/kg) using acute toxicity assay; normal; assay type: functional, organism-based
[9] = tested on: Mus musculus; assay: General behavior in mice after oral administration (1000 mg/kg) using acute toxicity assay; Normal; assay type: functional, organism-based
[10] = tested on: Rattus norvegicus; assay: Anti-inflammatory effect expressed as % inhibition at 50 mg/kg in acute carrageenan paw edema test in rats; assay type: functional
[11] = tested on: Mus musculus; assay: General behavior in mice after oral administration (1000 mg/kg) using acute toxicity assay; decreased locomotor activity, decreased muscular tonus; assay type: functional, organism-based
[12] = tested on: Mus musculus; assay: General behavior in mice after oral administration (1000 mg/kg) using acute toxicity assay; decreased muscular tonus; assay type: functional, organism-based
[13] = tested on: Mus musculus; assay: General behavior in mice after oral administration (500 mg/kg) using acute toxicity assay; Increased muscular tonus; assay type: functional, organism-based
[14] = tested on: Mus musculus; assay: General behavior in mice after oral administration (1000 mg/kg) using acute toxicity assay; Convulsions; assay type: functional, organism-based
[15] = tested on: Mus musculus; assay: General behavior in mice after oral administration (1000 mg/kg) using acute toxicity assay; Increased locomotor activity, convulsive tendency; assay type: functional, organism-based
[16] = Percent mortality in mice after oral administration (750 mg/kg) using acute toxicity assay; assay type: organism-based; settings: mouse, in vivo
[17] = tested on: Mus musculus; assay: General behavior in mice after oral administration (750 mg/kg) using acute toxicity assay; Convulsions; assay type: functional, organism-based
[18] = tested on: Mus musculus; assay: General behavior in mice after oral administration (1000 mg/kg) using acute toxicity assay; sedation, decreased muscular tonus; assay type: functional, organism-based
[19] = tested on: Mus musculus; assay: General behavior in mice after oral administration (1000 mg/kg) using acute toxicity assay; decreased locomotor activity, increased muscular tonus; assay type: functional, organism-based
[20] = tested on: Rattus norvegicus; assay: Anti-inflammatory effect expressed as % inhibition at 100 mg/kg in acute carrageenan paw edema test in rats; No inhibition; assay type: functional, organism-based; parameters: dose 100 mg/kg
[21] = tested on: Mus musculus; assay: General behavior in mice after oral administration (1000 mg/kg) using acute toxicity assay; Increased muscular tonus; assay type: functional, organism-based

| Compound | ED50 [3] | mortality [6] | inhibition in vivo at 50 mg/kg [10] | also measured |
| --- | --- | --- | --- | --- |
| O=c1oc2cccnc2n1CN1CCN(c2ccccc2Cl)CC1 | 22.2 mg/kg |  |  | inhibition [1]: inactive; mortality [2]: 100%; Behavior [4]: Convulsions |
| O=c1oc2cccnc2n1CCN1CCCCC1 | > 25 mg/kg | 66% |  | inhibition in vivo at 100 mg/kg [5]: 21%; Behavior [7]: convulsions |
| O=c1oc2cc(Br)cnc2n1CCN1CCN(c2ccccc2)CC1 | 34.1 mg/kg | 0% |  | Behavior [8]: normal |
| Cc1ccc2oc(=O)n(CCN3CCN(c4ccccc4)CC3)c2n1 | > 50 mg/kg | 0% |  | inhibition in vivo at 100 mg/kg [5]: 2%; Behavior [9]: Normal |
| O=c1oc2cccnc2n1CCN1CCN(c2ccc(Oc3ccccc3)cc2)CC1 | > 50 mg/kg | 0% |  | Behavior [8]: normal |
| O=c1oc2cccnc2n1CCCN1CCN(c2ccccc2)CC1 | 15.5 mg/kg | 10% | 16% | Behavior [11]: decreased locomotor activity, decreased muscular tonus |
| O=C(OCC(O)CO)c1ccccc1Nc1ccnc2cc(Cl)ccc12 (stereo not drawn) [GLAFENINE] | 29.3 mg/kg | 30% | 36% | Behavior [9]: inactive |
| O=c1oc2cccnc2n1CCN1CCN(c2ccc(F)cc2)CC1 | 41.3 mg/kg | 0% | 16% | Behavior [12]: decreased muscular tonus |
| O=c1oc2cccnc2n1CCN1CCN(c2ccccc2)CC1 | 19.4 mg/kg | 0% | 13% | Behavior [9]: Normal |
| O=c1oc2cccnc2n1CN1CCN(c2cccc(Cl)c2)CC1 | 10.5 mg/kg |  | 27% | mortality [2]: 100%; Behavior [4]: Convulsions |
| O=c1oc2cccnc2n1CN1CCN(c2cccc(C(F)(F)F)c2)CC1 | 3.6 mg/kg |  | 25% | Behavior [13]: Increased muscular tonus; mortality [2]: 50% |
| CCN(CC)CCn1c(=O)oc2cccnc21 | > 25 mg/kg | 83% |  | Behavior [14]: Convulsions |
| O=c1oc2cccnc2n1CN1CCN(c2ccc(F)cc2)CC1 | 3.5 mg/kg |  |  | mortality [2]: 100%; Behavior [4]: Convulsions |
| O=c1oc2cccnc2n1CCCN1CCN(c2cccc(C(F)(F)F)c2)CC1 | 22 mg/kg | 50% |  | inhibition [1]: inactive; Behavior [7]: convulsions |
| O=c1oc2cccnc2n1CCN1CCN(c2cccc(C(F)(F)F)c2)CC1 | 11.4 mg/kg | 0% |  | inhibition [1]: inactive; Behavior [15]: Increased locomotor activity, convulsive tendancy |
| COc1ccc2c3c1O[C@H]1[C@@H](O)C=C[C@H]4[C@@H](C2)N(C)CC[C@@]341 [CODEINE] | 9.7 mg/kg |  | 20% | mortality [16]: 40%; Behavior [17]: Active |
| O=c1oc2ccccc2n1CCN1CCN(c2ccccc2)CC1 | > 50 mg/kg | 0% | 1% | Behavior [18]: sedation, decreased muscular tonus |
| O=c1oc2cccnc2n1CN1CCN(c2ccccc2)CC1 | 5.9 mg/kg |  | 11% | mortality [2]: 70%; Behavior [4]: Convulsions |
| O=c1oc2cccnc2n1CCCCN1CCN(c2ccccc2)CC1 | > 25 mg/kg | 100% |  | Behavior [14]: Convulsions |
| O=c1oc2cccnc2n1CCN1CCN(c2ccc(Cl)cc2)CC1 | > 50 mg/kg | 0% |  | Behavior [19]: decreased locomotor activity, increased muscular tonus |
| COc1ccccc1N1CCN(CCn2c(=O)oc3cccnc32)CC1 | > 50 mg/kg | 0% |  | inhibition [20]: inactive; Behavior [9]: Normal |
| O=c1oc2ccccc2n1CCN1CCN(c2cccc(C(F)(F)F)c2)CC1 | 30.2 mg/kg | 0% |  | inhibition [1]: inactive; Behavior [9]: Normal |
| CN1CCN(CCn2c(=O)oc3cccnc32)CC1 | > 25 mg/kg | 50% |  | inhibition [20]: inactive; Behavior [14]: Convulsions |
| O=c1oc2cccnc2n1CCN1CCOCC1 | > 25 mg/kg | 50% |  | inhibition in vivo at 100 mg/kg [5]: 7%; Behavior [21]: Increased muscular tonus |
| O=c1oc2cccnc2n1CN1CCN(c2ccc(Cl)cc2)CC1 | 10.6 mg/kg |  | 23% | mortality [2]: 90%; Behavior [4]: Convulsions |
| COc1ccccc1N1CCN(Cn2c(=O)oc3cccnc32)CC1 | > 25 mg/kg |  | 15% | mortality [2]: 100%; Behavior [4]: Convulsions |
